From patent publication US5981539A, “Piperidine compounds as calcium channel blockers” (Neurosearch A/S, priority 1995, dated 1999)

Assays:
[1] = target: N-type calcium channels (chick cortical synaptosomes) (Gallus gallus, UniProt A0A8V1AJW5); experiment: 45Ca-uptake/influx into chick cortical synaptosomes (K+ depolarization, 30 mM K+); format: biochemical; settings: 30 mM K+ minus 4 mM K+, 10 sec influx, 37° C., pH 7.4, read-out: IC50 (concentration of test substance which inhibits the specific uptake of 45Ca by 50%)
[2] = drugs that act at both sodium and calcium channels; result in words; cited from earlier work

Chain of N-type calcium channels (chick cortical synaptosomes) (A0A8V1AJW5 1-2349): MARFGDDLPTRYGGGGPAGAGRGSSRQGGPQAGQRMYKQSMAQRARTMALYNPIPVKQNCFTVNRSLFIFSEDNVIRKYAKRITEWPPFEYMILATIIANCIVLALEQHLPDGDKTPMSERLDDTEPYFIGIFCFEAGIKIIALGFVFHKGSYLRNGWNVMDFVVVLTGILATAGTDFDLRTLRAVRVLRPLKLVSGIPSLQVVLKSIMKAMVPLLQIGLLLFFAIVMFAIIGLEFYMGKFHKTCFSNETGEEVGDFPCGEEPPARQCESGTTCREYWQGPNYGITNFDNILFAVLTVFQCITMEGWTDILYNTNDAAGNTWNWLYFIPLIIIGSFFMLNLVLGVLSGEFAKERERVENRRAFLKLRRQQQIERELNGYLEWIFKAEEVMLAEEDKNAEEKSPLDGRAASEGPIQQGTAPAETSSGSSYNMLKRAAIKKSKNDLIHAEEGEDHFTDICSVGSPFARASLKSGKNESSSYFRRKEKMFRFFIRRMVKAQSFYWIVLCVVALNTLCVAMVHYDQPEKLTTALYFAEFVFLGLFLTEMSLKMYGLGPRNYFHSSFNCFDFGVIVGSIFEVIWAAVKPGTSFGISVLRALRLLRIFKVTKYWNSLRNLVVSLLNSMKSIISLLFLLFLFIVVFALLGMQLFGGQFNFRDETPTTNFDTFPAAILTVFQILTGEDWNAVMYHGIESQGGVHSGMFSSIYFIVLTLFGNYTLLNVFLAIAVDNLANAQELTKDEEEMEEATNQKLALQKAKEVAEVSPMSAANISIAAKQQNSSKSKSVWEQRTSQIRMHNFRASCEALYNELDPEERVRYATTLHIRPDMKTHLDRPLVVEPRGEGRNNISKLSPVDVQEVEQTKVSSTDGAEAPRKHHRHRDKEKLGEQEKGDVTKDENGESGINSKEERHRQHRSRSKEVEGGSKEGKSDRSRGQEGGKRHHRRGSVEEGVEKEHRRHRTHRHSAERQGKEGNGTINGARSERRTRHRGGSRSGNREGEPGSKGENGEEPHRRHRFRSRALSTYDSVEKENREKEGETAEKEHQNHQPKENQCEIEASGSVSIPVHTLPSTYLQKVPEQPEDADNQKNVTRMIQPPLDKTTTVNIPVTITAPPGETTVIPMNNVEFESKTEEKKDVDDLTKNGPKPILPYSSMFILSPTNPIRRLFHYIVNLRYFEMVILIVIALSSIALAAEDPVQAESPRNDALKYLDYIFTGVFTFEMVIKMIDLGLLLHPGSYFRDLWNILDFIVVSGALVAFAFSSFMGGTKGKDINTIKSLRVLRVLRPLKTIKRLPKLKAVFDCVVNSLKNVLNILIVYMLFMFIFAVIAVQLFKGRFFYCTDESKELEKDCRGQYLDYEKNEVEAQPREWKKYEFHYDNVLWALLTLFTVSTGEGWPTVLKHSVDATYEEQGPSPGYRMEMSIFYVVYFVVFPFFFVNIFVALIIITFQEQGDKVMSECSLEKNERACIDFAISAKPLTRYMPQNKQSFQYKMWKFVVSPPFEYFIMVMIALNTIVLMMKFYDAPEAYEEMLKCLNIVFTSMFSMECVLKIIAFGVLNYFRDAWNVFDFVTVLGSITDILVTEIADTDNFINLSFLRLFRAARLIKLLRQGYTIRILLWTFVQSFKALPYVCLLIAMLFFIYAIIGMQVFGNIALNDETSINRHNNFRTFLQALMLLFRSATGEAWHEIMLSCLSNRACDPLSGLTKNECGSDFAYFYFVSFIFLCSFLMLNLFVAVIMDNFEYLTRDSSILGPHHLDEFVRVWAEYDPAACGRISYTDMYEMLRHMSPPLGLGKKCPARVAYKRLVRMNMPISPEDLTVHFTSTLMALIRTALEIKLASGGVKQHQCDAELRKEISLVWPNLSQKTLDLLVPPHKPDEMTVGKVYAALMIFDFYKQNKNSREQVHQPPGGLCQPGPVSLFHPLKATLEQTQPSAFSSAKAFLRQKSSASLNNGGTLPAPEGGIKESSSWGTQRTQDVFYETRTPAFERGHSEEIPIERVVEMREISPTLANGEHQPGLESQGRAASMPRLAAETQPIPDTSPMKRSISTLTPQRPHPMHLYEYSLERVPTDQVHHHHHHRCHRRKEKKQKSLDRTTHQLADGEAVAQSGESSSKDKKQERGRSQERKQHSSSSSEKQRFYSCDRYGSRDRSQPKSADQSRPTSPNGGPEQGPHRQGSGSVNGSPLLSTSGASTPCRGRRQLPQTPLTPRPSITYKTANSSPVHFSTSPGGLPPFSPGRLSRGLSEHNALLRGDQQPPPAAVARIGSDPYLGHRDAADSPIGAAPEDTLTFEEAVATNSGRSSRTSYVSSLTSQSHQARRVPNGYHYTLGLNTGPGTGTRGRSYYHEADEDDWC

Row | Molecule | IC50 [1] [nM] | anti-ischaemic activity in animal models [2]
1 | CCCCCN1CC[C@H](CCOc2cccc(C)c2C)[C@H](OC)C1 (racemic) [(±)-cis-4-[2-(2,3-Dimethylphenoxy)-ethyl]-3-methoxy-N-pentylpiperidine] | 900 | –
2 | CCCCCN1CC[C@H](CCOc2ccccc2Cc2ccccc2)[C@H](OC)C1 (racemic) [(±)-cis-4-[2-(2-benzylphenoxy)ethyl]-3-methoxy-N-pentylpiperidine] | 900 | –
3 | CCCCCN1CC[C@H](CCOc2ccccc2-c2ccccc2)[C@H](OC)C1 (racemic) [(±)-cis-4-[2-(2-phenylphenoxy)ethyl]-3-methoxy-N-pentylpiperidine] | 1000 | –
4 | CCCCCN1CC[C@H](CCN(c2ccccc2)c2ccccc2)[C@H](OC)C1 (racemic) [(±)-cis-4-[2-(N,N-diphenylamino)ethyl]-3-methoxy-N-pentylpiperidine] | 1100 | –
5 | CCCCCN1CC[C@@H](CCOc2ccccc2Cc2ccccc2)[C@H](OC)C1 (racemic) [(±)-trans-4-[2-(2-benzylphenoxy)ethyl]-3-methoxy-N-pentylpiperidine] | 600 | –
6 | CCCCCN1CC[C@@H](CCOc2ccc(Cl)c(Cl)c2)[C@H](OC(C)=O)C1 (racemic) [(±)-trans-4-[2-(3,4-Dichlorophenoxy)-ethyl]-3-acetoxy-N-pentylpiperidine] | 500 | –
7 | CCCCCN1CC[C@@H](CCOc2ccc(Cl)c(Cl)c2)[C@H](OC)C1 (racemic) [(±)-trans-4-[2-(3,4-Dichlorophenoxy)-ethyl]-3-methoxy-N-pentylpiperidine] | 700 | –
8 | CCCCCN1CC[C@@H](CCOc2cccc(OC(C)C)c2)[C@H](OCCOC)C1 (racemic) [(±)-trans-4-[2-(3-isopropoxyphenoxy)ethyl]-3-(2-methoxy-1-ethoxy)-N-pentylpiperidine] | 1100 | –
9 | CCCCCN1CC[C@@H](CCN(c2ccccc2)c2ccccc2)[C@H](OCCOC)C1 (racemic) [(±)-trans-4-[2-(N,N-diphenylamino)ethyl]-3-(2-methoxy-1-ethoxy)-N-pentylpiperidine] | 500 | –
10 | CCCCCN1CC[C@@H](CCN(c2ccccc2)c2ccccc2)[C@H](OC)C1 (racemic) [(±)-trans-4-[2-(N,N-diphenylamino)ethyl]-3-methoxy-N-pentylpiperidine] | 1300 | –
11 | CCCCCN1CC[C@@H](Oc2ccc(Oc3ccccc3)cc2)[C@H](OCCOC)C1 (racemic) [(±)-trans-4-[4-phenoxyphenoxy]-3-(2-methoxy-1-ethoxy)-N-pentylpiperidine] | 620 | –
12 | CCCCCN1CC[C@@H](Oc2ccccc2OCc2ccccc2)[C@H](OCCOC)C1 (racemic) [(±)-trans-4-[(2-benzyloxyphenoxy)]-3-(2-methoxy-1-ethoxy)-N-pentylpiperidine] | 900 | –
13 | CCCCCN1CC[C@@H](SCc2ccc(Cl)cc2)[C@H](OCCOC)C1 (racemic) [(±)-trans-4-[(4-chlorobenzyl)thio]-3-(2-methoxy-1-ethoxy)-N-pentylpiperidine] | 1000 | –
14 | CCCCCN1CC[C@@H](CCOc2ccc(Cl)c(Cl)c2)[C@@H](OCCOC)C1 (relative stereo) [(±)-cis-4-[2-(3,4-Dichlorophenoxy)-ethyl]-3-(2-methoxy)-ethoxy-N-pentylpiperidine] | 300 | –
15 | CCCCCN1CC[C@H](CCOc2ccc(Cl)c(Cl)c2)[C@@H](OCCOC)C1 (relative stereo) [(±)-trans-4-[2-(3,4-Dichlorophenoxy)-ethyl]-3-(2-methoxy)-ethoxy-N-pentylpiperidine] | 400 | –
16 | Cc1ccc(-c2nc(C)c(CN3CCN(C(c4ccccc4)c4ccccc4)CC3)[nH]2)cc1 [Lifarizine] | – | powerful anti-ischaemic activity
17 | COc1ccc(CN2CCN(C(c3ccc(F)cc3)c3ccc(F)cc3)CC2)c(OC)c1OC [Lomerizine] | – | powerful anti-ischaemic activity
18 | Lanodipine | – | powerful anti-ischaemic activity
